From patent publication US20260097047A1, “Small molecule inhibitors of the ribosome biogenesis factor NVL2” (Board of Regents, The University of Texas System, priority 2023, published 2026)

Target: T1, NVL (Homo sapiens, UniProt O15381)
T1 sequence (O15381 1-856): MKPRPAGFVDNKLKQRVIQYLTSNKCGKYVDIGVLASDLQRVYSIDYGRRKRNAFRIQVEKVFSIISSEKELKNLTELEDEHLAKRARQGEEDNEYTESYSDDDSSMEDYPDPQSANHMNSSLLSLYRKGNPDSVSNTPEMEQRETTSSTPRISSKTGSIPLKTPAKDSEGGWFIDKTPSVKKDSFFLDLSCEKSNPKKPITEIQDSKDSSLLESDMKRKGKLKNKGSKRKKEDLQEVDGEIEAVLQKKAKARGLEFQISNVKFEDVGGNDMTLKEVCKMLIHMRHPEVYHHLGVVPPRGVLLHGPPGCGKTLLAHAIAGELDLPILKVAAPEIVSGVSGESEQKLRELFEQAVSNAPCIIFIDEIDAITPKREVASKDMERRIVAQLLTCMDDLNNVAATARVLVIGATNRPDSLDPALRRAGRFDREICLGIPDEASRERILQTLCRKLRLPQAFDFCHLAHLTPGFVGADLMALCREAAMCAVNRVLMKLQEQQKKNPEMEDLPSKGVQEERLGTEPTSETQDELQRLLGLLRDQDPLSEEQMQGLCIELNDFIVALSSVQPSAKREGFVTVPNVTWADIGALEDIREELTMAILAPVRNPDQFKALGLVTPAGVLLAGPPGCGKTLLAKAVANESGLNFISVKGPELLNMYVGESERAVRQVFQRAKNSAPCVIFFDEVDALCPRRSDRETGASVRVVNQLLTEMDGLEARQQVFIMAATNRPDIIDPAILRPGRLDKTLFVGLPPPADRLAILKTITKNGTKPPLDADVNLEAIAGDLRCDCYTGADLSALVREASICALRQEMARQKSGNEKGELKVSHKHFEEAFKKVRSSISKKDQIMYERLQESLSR
Experiment: Viability of NVL^AID/AID cells relying on ectopic human NVL (Ph-IAA)
Assay type: cell-based
Parameters: expressed in transfected cells; host or cells: HCT116 NVL^AID/AID cells (viral infection; 'mock infected' control)
Details: endogenous NVL degraded with Ph-IAA; read-out: IC50, cells expressing ectopic human NVL
Description: Next, we investigated whether inhibitors of NVL could inhibit the growth of cell line derived xenografts tumors in mice, and whether systemic inhibition of NVL leads to specific toxicities. […] To test the potency of MM927 against mouse NVL within the same cell type, we ectopically expressed either human or mouse NVL in NVL^AID/AID cells. Treatment with Ph-IAA degrades the endogenous protein so that the cells must rely solely on ectopically expressed NVL. In the mock infected cells, degrading NVL^AID/AID by the addition of Ph-IAA reduced cell viability as expected, and the viability was completely rescued by expression of either ectopic mouse or human NVL.

`CC#CCN1C(=O)c2ccc(F)cc2Sc2cc(NC(=O)c3ccc4oc(=O)n(C)c4c3)ccc21` [MM927, N-(10-(But-2-yn-1-yl)-3-fluoro-11-oxo-10,11-dihydrodibenzo[b,f][1,4]thiazepin-7-yl)-3-methyl-2-oxo-2,3-dihydrobenzo[d]oxazole-5-carboxamide] was tested, and the IC50 was 51 nM.
